These results are taken from patent US9603354B2, “Protective solutions for organs” (DR. FRANZ KOEHLER CHEMIE GMBH, priority 2002, dated 2017).

SMILES strings stand for the structures.

Data set [1] concerns rat hepatocytes. In words: Hypothermic injury of cultivated rat hepatocytes in UW solution, LDH release (FIG. 2). In kind it is cell-based. Conditions: 1 mM; 24 hrs at 4° C. in UW solution, aerobic; reheated 3 hrs at 37° C. in cell culture medium. As for the experimental part: Cultivated rat hepatocytes were incubated for 24 hrs at 4° C. in a University of Wisconsin solution (UW) under aerobic conditions in the presence of, and in the absence of 1 mM of 3,4-dimethoxy-N-methyl-benzohydroxamic acid, and subsequently reheated for 3 hrs in a cell culture medium (37° C.). The secretion of cytosolic lactate […] (LDH) served as the parameter of the cell damage.

In another data set the test system is hepatocytes. In words: Cell damage of hepatocytes by hydrogenperoxide (FIG. 5). Conditions: 1 mM/l in N4 solution + 20 mM/l H2O2. The class given is cell-based. As for the experimental part: 1: N4+20 mM/l H2O2 • graph no. 2: N4+20 mM/l H2O2+1 mM/l 4-chloro-N-methyl-benzohydroxamic acid • graph no. 3: N4+20 mM/l H2O2+1 mM/l 2-hydroxy-3-methyl-isocarbosteryl • graph no. 4: N4+20 mM/l H2O2+1 mM/l 3,4,5-trimethoxy-N-methyl-benzohydroxamic acid • graph no. 5: N4+20 mM/l H2O2+1 mM/l 3,4-dimethoxy-N-methyl-hydroxamic acid, N4 meaning the solution according to example II given hereinafter, but without Trolox and without hydroxamic acid derivative.

In data set [2] the test system is iron-dependent hypothermic injury, cold-induced apoptosis. In words: Inhibition of iron-dependent hypothermic injury / cold-induced apoptosis by iron-chelating agents. In kind it is cell-based. An excerpt: Iron-chelating agents may serve for the inhibition of the iron-dependent hypothermic injury, or of the cold-induced apoptosis.
Data set [3] deals with rat liver endothelial cells. In words: Hypothermic injury of cultivated rat liver endothelial cells, LDH release (FIG. 1). In kind it is cell-based. Conditions: 1 mM; 72 hrs at 4° C. in UW solution, aerobic; rewarmed 3 hrs at 37° C. in cell culture medium. The procedure:
Cultivated rat liver endothelial cells were incubated for 72 hrs at 4° C. in University of Wisconsin solution (UW) under aerobic conditions in the presence of, and in the absence of 1 mM of salicyl-N-methylhydroxamic acid, and subsequently rewarmed for 3 hrs in a cell culture medium (37° C.). The release of cytosolic lactate dehydrogenase (LDH) served as the parameter of the cell damage.
Background: Release of lactate dehydrogenase indicates damage to the cell membrane.

Data set [4] in a line: Neutralization curve / buffer capacity (FIG. 3). Conditions: for usable buffer capacity in the range of the physiological pH value: based on the ratio of spent base to substrate. In kind it is physicochemical. An excerpt: The usable buffer capacity in the range of the physiological pH value; with N-acetylhistidine 60%, and with histidine 30% based on the ratio of spent base to substrate.

Data set [5] relates to rat hepatocytes. In words: Toxicity of histidine under warm conditions in cultivated rat hepatocytes (FIG. 4). The class given is cell-based. The following applies: 198 mM; 5 hrs at 37° C., aerobic, Krebs-Henseleit buffer, pH 7.2. The procedure: Cultivated rat hepatocytes were incubated for 5 hrs at 37° C. under aerobic conditions in the presence of, and in the absence of 198 mM of L-histidine, or 198 mM of N-acetylhistidine. The base solution was Krebs-Henseleit buffer (KH), a physiological saline solution often used in cell cultures; the NaCl concentration of the histidine (derivative) containing solution was decreased by 99 mM and the histidine (derivative) solution was adjusted by the addition of HCl or NAOH to pH 7.2.

Take `COc1ccc(C(=O)N(C)O)cc1OC` [3,4-dimethoxy-N-methyl-benzohydroxamic acid]: in the data set on rat hepatocytes [1], the “inhibition of hypothermic injury (cytosolic LDH)” value is “inhibition of hypothermic injury”. Also, the “protection from cell damage by hydrogenperoxide” value (“protection from cell damage” for short) in the data set on hepatocytes is given as “protection”.
On to `O=C(O)CN(CCN(CC(=O)O)CC(=O)O)CC(=O)O` [EDTA], for which, in data set [2], the “effectiveness in avoiding iron-dependent hypothermic injury” value (shortened to “effectiveness”) is “ineffective”.
On to `CN(O)C(=O)c1ccc(Cl)cc1` [4-chloro-N-methyl-benzohydroxamic acid], for which, in the data set on hepatocytes, the “protection from cell damage” value was “protection”.
As to `COc1cc(C(=O)N(C)O)cc(OC)c1OC` [3,4,5-trimethoxy-N-methyl-benzohydroxamic acid], the “protection from cell damage” value in the data set with hepatocytes is on record as “protection”.
On to `CN(O)C(=O)c1ccccc1O` [salicyl-N-methylhydroxamic acid], for which, in data set [3], the “inhibition of hypothermic injury (release of cytosolic LDH)” value is recorded as “inhibition of hypothermic injury”.
For `N[C@@H](Cc1c[nH]cn1)C(=O)O` [histidine, L-histidine], the “usable buffer capacity in the range of the physiological pH value” in data set [4] is reported as 30%. Besides, in the data set on rat hepatocytes [5], the “toxicity under warm conditions” value was “toxicity”. Besides, the “effectiveness” value in data set [2] is on record as “ineffective”.
Consider `CC(=O)N[C@@H](Cc1c[nH]cn1)C(=O)O` [N-acetylhistidine], for which the “usable buffer capacity in the range of the physiological pH value” in data set [4] is reported as 60%. Moreover, the “buffer capacity improved by factor compared to histidine/histidine HCl” value in data set [4] (factor versus histidine/histidine HCl) stood at 2.
Turning to `O=C1CCC(=O)N1O` [N-hydroxysuccinimide], the “effectiveness” value in data set [2] is “ineffectiveness”.
Turning to `O=c1c2ccccc2nnn1O` [3,4-dihydro-3-hydroxy-4oxo-1,2,3-benzotriazine], the “effectiveness” value in data set [2] is listed as “ineffectiveness”.
As for `Cc1cc2ccccc2c(=O)n1O` [2-hydroxy-3-methyl-isocarbosteryl, 2-hydroxy-3-methyl-isocarbostyril], the “protection from cell damage” value with hepatocytes is reported as “protection”.
